Legend:
[1] = test system: human OVCAR-3 (NIH-OVCAR-3) ovarian adenocarcinoma; experiment: OVCAR-3 ovarian carcinoma xenograft efficacy study; assay type: in vivo, SCID mice
Procedure: (§1) The human OVCAR-3 (NIH-OVCAR-3) ovarian adenocarcinoma utilized in the study is maintained in athymic nude mice by serial engraftment. The human SW620 colon adenocarcinoma utilized in the study is maintained in nude mice by serial engraftment.
Tumor weight may be estimated with the assumption that 1 mg is equivalent to 1 mm^3 of tumor volume. Tumor size, in mm^3, was calculated from: […]
Oral group receives BA p.o. (orally) twice daily from D1 p.m. until D68 a.m. (b.i.d. to end, i.e. twice daily dosing for the duration of the study). Alzet model osmotic pumps are implanted on Days 1, 15, and 29. The pumps are pre-warmed for 1 hour at 37° C., and then implanted subcutaneously (s.c.) in the left flanks of isofluoraneanesthetized mice. Each pump delivers a total dose of 25 mg/kg/week of BA over 14 days. BA is administrated intraperitoneally (i.p.) 15 mg/kg respectively twice weekly.
Each animal is euthanized when its neoplasm reached the predetermined endpoint size (1,000 mm^3).
where: T=median TTE for a treatment group, C=median TTE for control Group 1.

[2] = Clinical safety experience with BA to date; assay type: in vivo, human
advanced solid tumors = experiment: Phase 1b study of BA in combination with chemotherapy, clinical response via RECIST; assay type: in vivo, human
Procedure: The protocol has been amended to evaluate BA in combination with chemotherapy in specific tumor types.
BA plus cytotoxic chemotherapy (CTX)
BA Dosing: • Twice weekly; i.v. infusion • Standard 3+3 design for BA dose escalation • Dose levels studied: 2.0, 2.8, 4.0, 5.6, 8.0, and up to 11.2 mg/kg
Clinical response via RECIST every 2 cycles
Subjects— 18 years old with a refractory, advanced solid tumor, ECOG PS of <=2, and adequate hematological, renal, and hepatic function
No restriction on number of prior chemotherapeutic regimens

[3] = Tissue distribution of BA; assay type: in vivo
PARP = PARP activity in tissue samples from OVCAR-3 xenograft model; assay type: in vivo, SCID mice; settings: after a single dose of BA; for effect on PARP activity in xenograft tissue samples: FIG. 2
Description: as §1
Whole blood is collected into EDTA vacutainers and human PBMCs are obtained by BD Vacutainer™ CPT™ Cell Preparation kit according to the manufacturer's instructions (BD Vacutainer™, REF 362760). Tumor samples are collected in a sterile container and placed immediately on ice. Within 30 minutes, tumor samples are snap-frozen in liquid nitrogen and stored at −80° C. until homogenized for analysis. The specimen is defrosted on ice and the wet weight is documented. The tissue is homogenized using isotonic buffer [7 mmol/L HEPES, 26 mmol/L KCl, 0.1 mmol/L dextran, 0.4 mmol/L EGTA, 0.5 mmol/L MgCl2, 45 mmol/L sucrose (pH 7.8)]. The homogenate is kept on ice throughout the process, and homogenization is done in 10-second bursts to prevent undue warming of the sample. Unless assayed on the day of homogenization, samples are refrozen to −80° C. and stored at this temperature until analyzed.
Cell preparations are defrosted rapidly at room temperature and washed twice in ice-cold PBS. […] Maximally stimulated PARP activity is measured in replicate samples of 20,000 cells in a reaction mixture containing […] NAD+ and 10 mg/mL oligonucleotide in a reaction buffer of 100 mmol/L Tris-HCl, 120 mmol/L MgCl2 (pH 7.8) in a final volume of […] as described previously (24) at 26° C. in an oscillating water bath. […] Purified PAR standards are loaded onto each membrane ([…] monomer equivalent) to generate a standard curve and allow quantification. […] Chemiluminesence detected during a 5-minute exposure is measured using a Fuji LAS3000 UV Illuminator (Raytek, Sheffield, United Kingdom) and digitized using the imaging software (Fuji LAS Image version 1.1, Raytek). The acquired image is analyzed using Aida Image Analyzer (version 3.28.001), and results are expressed in LAU/mm^2. […]

SMILES: NC(=O)c1ccc(I)c([N+](=O)[O-])c1 [BA, 4-iodo-3-nitrobenzamide]
- tumor growth ([1]; OVCAR-3 xenograft in SCID mice): significantly inhibits tumor growth
- survival compared with the untreated control ([1]; different routes of administration, FIG. 3): improves survival
- safety and tolerability [2]: safe and well-tolerated
- serious adverse events or grade 3 or 4 toxicities associated with BA [2]: no serious adverse events or grade 3 or 4 toxicities
- subjects with stable disease for 2 cycles of treatment or more (advanced solid tumors; BA plus cytotoxic chemotherapy): Approximately 80%
- tumor response of a patient with advanced ovarian cancer (advanced solid tumors; after 4 cycles of BA in combination with topotecan, FIG. 4): partial response
- subjects demonstrating some clinical benefit (advanced solid tumors; of 66 subjects, BA plus cytotoxic chemotherapy): 53 subjects
- liver lesion (target lesion) size after treatment (advanced solid tumors; one ovarian cancer patient, 4 cycles BA with topotecan, from 4.6 cm): 1.5 cm
- CA 27-29 biomarker after treatment (advanced solid tumors; one ovarian cancer patient, 4 cycles BA with topotecan, from >300): < 200
- blood-brain barrier crossing ([3]; in vivo): known to cross the blood-brain barrier
- tissue distribution ([3]; including the brain and cerebrospinal fluid (CSF)): distributes rapidly and widely into tissues
- effect on PARP activity in xenograft tissue samples (PARP): inhibitory effect
- effect on PARP activity in xenograft tissue samples (PARP; listed as 4-iodo-3-nitrobenzamide): inhibition of PARP
- duration of inhibitory effect on PARP activity (PARP; hours of observation): at least 8 hours

From patent publication US20090123419A1, “TREATMENT OF UTERINE CANCER AND OVARIAN CANCER WITH A PARP INHIBITOR ALONE OR IN COMBINATION WITH ANTI-TUMOR AGENTS” (BiPar Sciences, priority 2007, published 2009)
